# US8754226B2, “Piperidinyl-substituted lactams as GPR119 modulators” (Array BioPharma Inc., priority 2010, dated 2014)
# Counter-ions that a name gives are not always drawn.
# System: modified version of the GPR119 receptor (94% identity to human receptor)
# Assay: cAMP production assay (LANCE cAMP kit, TR-FRET) in HEK-293 cells
# Format: cell-based
# Conditions: for cAMP production in HEK-293 cells: HEK-293 cells stably expressing modified GPR119, test compounds 0.2 nM to 10 μM, one-hour incubation at ambient temperature; for Fold over baseline: increase in cAMP relative to basal levels, agonist activity if 1.5-fold or greater
# In short: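 Doxycycline-induced (1 μg/mL, overnight) HEK-293 cells expressing modified GPR119 were thawed, 2000 cells/well, and exposed to compounds (0.2 nM-10 μM final, 0.5% DMSO) for 1 h at ambient temperature in HBSS/HEPES/BSA. cAMP was measured by LANCE TR-FRET against a standard curve. Agonism was defined as ≥1.5-fold over basal.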
structure (smiles),measurement,value
"Cc1cc(N[C@H]2CCN(C3CCN(c4cnc(Cl)cn4)CC3)C2=O)c(F)cc1S(C)(=O)=O [Example 1, (S)-1-(1-(5-chloropyrazin-2-yl)piperidin-4-yl)-3-(2-fluoro-5-methyl-4-(methylsulfonyl)phenylamino)pyrrolidin-2-one]",cAMP production in HEK-293 cells,23.5 nmol
same,Fold over baseline,3.9
"CS(=O)(=O)c1cc(F)c(N[C@H]2CCCCN(C3CCN(c4cnc(Cl)cn4)CC3)C2=O)cc1F.Cl [Example 81, (S)-1-(1-(5-chloropyrazin-2-yl)piperidin-4-yl)-3-(2,5-difluoro-4-(methylsulfonyl)phenylamino)azepan-2-one hydrochloride]",cAMP production in HEK-293 cells,22.7 nmol
same,Fold over baseline,5.0
"CS(=O)(=O)c1ccc(N[C@H]2CCN(C3CCN(c4nccnc4C#N)CC3)C2=O)c(F)c1 [Example 132, (S)-3-(4-(3-(2-fluoro-4-(methylsulfonyl)phenyl-amino)-2-oxopyrrolidin-1-yl)piperidin-1-yl)pyrazine-2-carbonitrile]",cAMP production in HEK-293 cells,9.1 nmol
same,Fold over baseline,1.5
"O=C1[C@@H](Nc2ncc(C(F)(F)F)cc2Cl)CCN1C1CCN(c2cnc(Cl)cn2)CC1 [Example 22, (S)-3-(3-chloro-5-(trifluoromethyl)pyridin-2-ylamino)-1-(1-(5-chloropyrazin-2-yl)piperidin-4-yl)pyrrolidin-2-one]",cAMP production in HEK-293 cells,32.7 nmol
same,Fold over baseline,5.6
"CCc1ccc(N2CCC(N3CC[C@@H](Nc4ccc(S(C)(=O)=O)cc4F)C3=O)CC2)nc1 [Example 27B, (R)-1-(1-(5-ethylpyridin-2-yl)piperidin-4-yl)-3-(2-fluoro-4-(methylsulfonyl)phenylamino)pyrrolidin-2-one]",cAMP production in HEK-293 cells,7.5 nmol
same,Fold over baseline,2.2
"CN(C)C(=O)c1ccc(O[C@H]2CCN(C3CCN(c4ncc(Cl)cc4F)CC3)C2=O)cn1 [Example 149, (S)-5-(1-(1-(5-chloro-3-fluoropyridin-2-yl)piperidin-4-yl)-2-oxopyrrolidin-3-yloxy)-N,N-dimethylpicolinamide]",cAMP production in HEK-293 cells,6.8 nmol
same,Fold over baseline,1.5
"CC(C)c1cnc(N2CCC(N3CC[C@H](Nc4ccc(S(C)(=O)=O)cc4F)C3=O)CC2)nc1 [Example 29, (S)-3-(2-fluoro-4-(methylsulfonyl)phenylamino)-1-(1-(5-isopropylpyrimidin-2-yl)piperidin-4-yl)pyrrolidin-2-one trifluoroacetate]",cAMP production in HEK-293 cells,11.5 nmol
same,Fold over baseline,2.1
"CS(=O)(=O)c1cc(F)c(N[C@H]2CCCN(C3CCN(c4cnc(Cl)cn4)CC3)C2=O)cc1F [Example 57, (S)-1′-(5-chloropyrazin-2-yl)-3-(2,5-difluoro-4-(methylsulfonyl)phenylamino)-[1,4′-bipiperidin]-2-one]",cAMP production in HEK-293 cells,22.8 nmol
same,Fold over baseline,3.3
"CS(=O)(=O)c1cc(F)c(N[C@H]2CCN(C3CCN(c4cnc(C(F)(F)F)cn4)CC3)C2=O)cc1F [Example 11, (S)-3-(2,5-difluoro-4-(methylsulfonyl)phenylamino)-1-(1-(5-(trifluoromethyl)pyrazin-2-yl)piperidin-4-yl)pyrrolidin-2-one]",cAMP production in HEK-293 cells,27.1 nmol
same,Fold over baseline,3.4
"CCc1cnc(N2CCC(N3CC[C@H](Nc4cc(F)c(S(C)(=O)=O)cc4F)C3=O)CC2)nc1 [Example 5, (S)-3-(2,5-difluoro-4-(methyl-sulfonyl)phenylamino)-1-(1-(5-ethylpyrimidin-2-yl)piperidin-4-yl)pyrrolidin-2-one]",cAMP production in HEK-293 cells,12.3 nmol
same,Fold over baseline,2.2
"CS(=O)(=O)c1cc(F)c(N[C@H]2CCCN(C3CCN(c4ncc(Cl)cn4)CC3)C2=O)cc1F [Example 50, (S)-1′-(5-chloropyrimidin-2-yl)-3-(2,5-difluoro-4-(methylsulfonyl)phenylamino)-[1,4′-bipiperidin]-2-one]",cAMP production in HEK-293 cells,11.4 nmol
same,Fold over baseline,2.3
